Experimental findings from the Deep4Chem optical property database are described below.

The series can be described thus: photoluminescence quantum yield (fraction); solvent given as SMILES.

The structures appear in SMILES notation.

`CCCCCCCCC1(CCCCCCCC)c2cc(-c3ccc(C(=O)OC)cc3)ccc2-c2ccc(-c3ccc(C(=O)OC)cc3)cc21` returned a photoluminescence quantum yield (in ClC(Cl)Cl) of 0.94.

With `CCOC(=O)c1cc(C(=O)OCC)c2cc(N(C)C)ccc2n1`, under “in CCO”, the photoluminescence quantum yield was found to be 0.595.

As for `CC1(C)c2ccccc2N(c2ccc(C(=CC#N)c3ccc(N4c5ccccc5C(C)(C)c5ccccc54)cc3)cc2)c2ccccc21`, where the note is “in Cc1ccccc1”, the photoluminescence quantum yield worked out at 0.313.

`c1ccc(N(c2ccccc2)c2ccc(-c3ccc4c(c3)C3(c5cc(-c6ccc(N(c7ccccc7)c7ccccc7)cc6)ccc5O4)c4ccccc4-c4ccccc43)cc2)cc1`: the photoluminescence quantum yield by setting is: (in ClCCl) 0.47; (in c1cc(-n2c3ccccc3c3ccccc32)cc(-n2c3ccccc3c3ccccc32)c1) 0.45.

`Cn1nc(-c2ccccc2)c2nc3cc(Cl)ccc3nc21`: the photoluminescence quantum yield stood at 0.58 (in C1CCCCC1), 0.27 (in C1CCOC1) and 0.08 (in CC#N).

Where the note is “in ClCCl”, `O=S1(=O)c2ccc(-c3ccc(N(c4ccccc4)c4ccccc4)cc3)cc2C2(c3ccccc3-c3ccccc32)c2cc(-c3ccc(N(c4ccccc4)c4ccccc4)cc3)ccc21` gave a photoluminescence quantum yield of 0.89.

Regarding `N#CC1=C(c2ccc(-c3cccs3)s2)CCC1`, for the setting “in CCO”, the photoluminescence quantum yield was determined as 0.04.

As to `CCCCCc1c(C(=O)c2ccc3c4c(cccc24)-c2cccc4c2C3CC=C4)c2ccc3cccc4c5cccc6ccc1c(c65)c2c34` (configuration not stated), the photoluminescence quantum yield (in ClCCl) came out at 0.082.

Consider `O=P1(c2ccccc2)c2ccc(N3c4ccccc4Sc4ccccc43)cc2-c2cc(N3c4ccccc4Sc4ccccc43)ccc21`, for which the photoluminescence quantum yield (in Cc1ccccc1) came to 0.59 and the photoluminescence quantum yield (in c1ccc2c(c1)c1ccccc1n2-c1ccc(-c2ccc(-n3c4ccccc4c4ccccc43)cc2)cc1) turned out to be 0.53.

`CCCCCn1c2ccc(S(=O)(=O)O)cc2c(=O)c2cc(S(=O)(=O)O)ccc21`: the photoluminescence quantum yield runs as follows: (in CS(C)=O) 0.7; (in O) 0.92.

As to `CC1=CC(C)=[N+]2C1=Cc1c3ccccc3c(C#Cc3ccsc3)n1[B-]2(F)F`, the photoluminescence quantum yield by setting is: (in CCCCCC) 1; (in CCCCCCCCO) 0.72; (in CCOC(C)=O) 0.81; (in CN(C)C=O) 0.67; (in ClCCl) 0.8.

In the case of `Clc1cc(Cl)c([C](c2c(Cl)cc(Cl)cc2Cl)c2c(Cl)cc(-n3c4ccccc4c4ccccc43)cc2Cl)c(Cl)c1`, the photoluminescence quantum yield runs as follows: (in C1CCCCC1) 0.64; (in ClC(Cl)Cl) 0.06.

In turn, `C(=C\c1ccc(-c2cccc3ccccc23)s1)/c1cccs1` yielded a photoluminescence quantum yield (in ClCCl) of 0.25.

For the molecule `CC[N+]1(CC)CN2C(=N1)C(C(=O)O)=Cc1ccccc12`, the photoluminescence quantum yield amounted to 0.006 (in CN(C)C=O) and 0.531 (in O).

As for `Cc1ccc2c(c1)C1(c3ccccc3-c3ccccc31)c1cc(C)ccc1N2c1ccc(-c2ncccn2)cc1`, the photoluminescence quantum yield (in O=P(c1ccccc1)(c1ccccc1)c1ccc2oc3ccc(P(=O)(c4ccccc4)c4ccccc4)cc3c2c1) is 0.91.

Take `CN(C)c1ccc(-c2nc3cccnc3[nH]2)cc1`: the photoluminescence quantum yield runs as follows: (in C1CCCCC1) 0.72; (in CC#N) 0.76.

As to `COc1cc2c(cc1/C=C(\C#N)c1nc3ccccc3s1)c1ccccc1n2C`, the photoluminescence quantum yield worked out at 0.002 (in C1CCOC1); 0.001 (in CC#N); 0.003 (in CCOC(C)=O); 0.003 (in CN(C)C=O); 0.001 (in CO); 0.004 (in CS(C)=O). In addition, the photoluminescence quantum yield stood at 0.003 (in Cc1ccccc1), 0.003 (in ClC(Cl)Cl) and 0.003 (in ClCCl).

As to `C(C1=[NH+]c2cccc3cccc1c23)=c1[nH]c2cccc3cccc1c32`, the photoluminescence quantum yield (in CO) is 0.0103.

Molecule `CNc1ncc2nc(C#N)n(Cc3ccccc3)c2n1` registered a photoluminescence quantum yield (in C1COCCO1) of 0.61, a photoluminescence quantum yield (in CC#N) of 0.58, a photoluminescence quantum yield (in CO) of 0.49 and a photoluminescence quantum yield (in ClCCl) of 0.58.

With `CN(C)c1ccc(-c2ccc(-c3ccc(N(C)C)cc3)c3nc(-c4ccccc4)c(-c4ccccc4)nc23)cc1`, the photoluminescence quantum yield (in ClC(Cl)Cl) is 0.3.

`COc1ccc(-c2c3ccccc3c(C#Cc3ccccc3)c3cc4ccccc4cc23)cc1` yielded a photoluminescence quantum yield (in ClCCl) of 0.6.

Where the note is “in O”, `COc1ccc(OC)c(C2=C3C=CC(=[N+](C)C)C=C3[Si](C)(C)c3cc(N(C)C)ccc32)c1` yielded a photoluminescence quantum yield of 0.025.

For `CC(O)CC1=N/C(=C\c2cccc(N(C)C)c2)C(=O)N1C` (configuration not stated), the photoluminescence quantum yield reads like this: (in C1CCOC1) 0.11; (in CC#N) 0.03; (in CCCCCC) 0.37.

Consider `COC(=O)C1=C(C(=O)OC)C2=C[C@H]3c4ccccc4[C@]2([Se]1)c1ccccc13`, for which, for the setting “in ClCCl”, the photoluminescence quantum yield was determined as 0.86.

Regarding `CCOC(=O)/C(C#N)=C\c1ccc2c(c1)c1ccccc1n2-c1ccc(OC)cc1`, the photoluminescence quantum yield runs as follows: (in C1CCOC1) 0.13; (in CC#N) 0.04; (in CC(C)=O) 0.05; (in CCOC(C)=O) 0.08; (in CO) 0.02; (in CS(C)=O) 0.03. The photoluminescence quantum yield by setting is: (in Cc1ccccc1) 0.14; (in ClC(Cl)Cl) 0.09.

As to `COC(=O)C(Cc1ccc2oc(-c3ccc(N(C)C)cc3)nc2c1)NC(=O)OC(C)(C)C` (configuration not stated), the photoluminescence quantum yield (in C1CCCCC1) came out at 1; the photoluminescence quantum yield (in C1CCOC1) was 0.88; the photoluminescence quantum yield (in C1COCCO1) amounted to 1; the photoluminescence quantum yield (in CC1CCCO1) was found to be 1; the photoluminescence quantum yield (in CC1COC(=O)O1) was determined as 1; the photoluminescence quantum yield (in CC#N) came out at 0.95. Moreover, the photoluminescence quantum yield is, setting by setting: (in CC(C)=O) 1; (in CC(C)CC(C)(C)C) 0.95; (in CC(C)CO) 1; (in CC(C)O) 1; (in CC(C)OC(C)C) 1; (in CC(O)CO) 0.99. The photoluminescence quantum yield is, setting by setting: (in CCC(C)CC) 0.92; (in CCCCC) 0.95; (in CCCCCC) 0.93; (in CCCCCCCCC) 1; (in CCCCCCCCCC) 0.93; (in CCCCCCCO) 1. In addition, the photoluminescence quantum yield was 1 (in CCCCCCO); 1 (in CCCCCO); 0.99 (in CCCCO); 0.98 (in CCO); 1 (in CCOC(C)=O); 0.99 (in CCOCC). In addition, the photoluminescence quantum yield runs as follows: (in CN(C)C=O) 0.92; (in CO) 0.81; (in COCCOC) 0.7; (in CS(C)=O) 1; (in Cc1ccccc1) 0.9; (in Cc1ccccc1C) 0.99. Moreover, the photoluminescence quantum yield amounted to 0.68 (in ClC(Cl)Cl); 1 (in ClCCl); 0.71 (in NC=O); 0.91 (in OC1CCCCC1); 0.76 (in OCCO); 0.97 (in c1ccccc1).

As for `CCCn1c2cccc3c2[c+]2c4c1cccc4n(CCC)c1cccc(c12)n3CCC`, the photoluminescence quantum yield was determined as 0.16 (in CC#N), 0.2 (in CO) and 0.16 (in ClCCl).

The molecule `CC1=C(C#Cc2ccc([Si](c3ccccc3)(c3ccccc3)c3ccccc3)cc2)C(C)=[N+]2C1=C(c1ccccc1)c1c(C)c(C#Cc3ccc([Si](c4ccccc4)(c4ccccc4)c4ccccc4)cc3)c(C)n1[B-]2(F)F` returned a photoluminescence quantum yield (in ClCCl) of 0.15.
